Patent US5869449A, “38-decarboxy-38-hydroxymethyl derivatives of teiocoplanin antibiotics and a process for preparing them” (Gruppo Lepetit S.P.A., priority 1990, dated 1999)

Assay: Acid-base titration (pK MCS)
Format: physicochemical
Conditions: methyl cellosolve (MCS) H2O 4/1, excess 0.01M HCl, titrated with 0.01N NaOH; one basic ionizable function

| Substance | pKMCS |
| --- | --- |
| 38-Decarboxy-38-hydroxymethyl of teicoplanin pseudoaglycon 1 [Example 2] | 6.9 |
| 38-Decarboxy-38-hydroxymethyl of teicoplanin pseudoaglycon 2 [Example 3] | 6.8 |
